For 31 molecules, melting point, solubility and fold induction results are on record in patent US10570117B2, “Phenylimidazole compound” (Otsuka Pharmaceutical Factory, Inc., priority 2015, dated 2020).

Values after ≈ are worked out from the molar mass of the structure shown. Where two headings read alike, the source gives them in different places.

Data set [1] can be described thus: Solubility in gastric juice or intestinal juice model fluid (precipitation method using DMSO). Format: physicochemical. Conditions: room temperature. In a few lines:
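Compound in DMSO added to JP disintegration test fluid 1 (pH 1.2) or fluid 2 (pH 6.8) and shaken 24 h at room temperature. After filtration, dissolved concentration (μg/mL) determined by UV absorbance against compound calibration curves.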

Data set [2] concerns lipoprotein lipase (LPL) gene. Briefly: LPL mRNA elevating action (RT-PCR quantification of LPL mRNA in C2Cl2 cells). It is filed as cell-based, mouse. As to conditions: Mus musculus, 24 h, compound 10 μM, ratio relative to the amount of LPL mRNA in cells with DMSO only, read-out: Rate of increase in LPL mRNA. In a few lines:
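Mouse striated-muscle C2Cl2 cells in DMEM with 10% FBS exposed to compounds at 10 μM for 24 h. LPL mRNA quantified by RT-PCR and real-time PCR (20 cycles), expressed as ratio to DMSO-only cells set at 1.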

The mark [3] stands for this setting: pH 1.2, simulated gastric fluid, kinetic from dmso stock, 1st fluid for Disintegration Test of Japanese Pharmacopoeia (pH: 1.2), read-out: Solubility (μg/mL) 1st fluid.
The mark [4] stands for this setting: pH 6.8, kinetic from dmso stock, 2nd fluid for Disintegration Test of Japanese Pharmacopoeia (pH: 6.8), read-out: Solubility (μg/mL) 2nd fluid.

The molecule `COc1cc(OCc2ccc(C(F)(F)F)cn2)ccc1-c1nc(-c2ccc(Cl)nc2)[nH]c1C` [Example 68] showed a melting point of 129 to 132 °C. For the same molecule, the solubility at 24 h in data set [1] (setting [3]) is 104 µg/mL (≈ 219 µM). Further, the solubility at 24 h in data set [1] (setting [4]) turned out to be 2.3 µg/mL (≈ 4.84 µM). In data set [2], the fold induction at 10 µM is 2.45.
`COc1cc(OCc2ccc(C(F)(F)F)nc2)ccc1-c1[nH]c(-c2ccc(F)nc2)nc1I` [Example 329] had a melting point of 195 to 208 °C. In addition, the solubility at 24 h in data set [1] (setting [3]) is 5.8 µg/mL (≈ 10.2 µM). The solubility at 24 h in data set [1] (setting [4]) was determined as 13.6 µg/mL (≈ 23.8 µM). Also, in data set [2], the fold induction at 10 µM worked out at 2.96.
The matching figures for `COc1cc(OCc2ccc(C(F)(F)F)cn2)ccc1-c1c(Cl)nc(-c2ccc(Cl)nc2)n1C` [Example 309]: 133 to 135 °C, 14.8 µg/mL (≈ 29.1 µM), < 0.4 µg/mL and 2.37.
In the same order, the values of `COc1cc(OC(C)c2ncc(Br)cc2F)ccc1-c1[nH]c(-c2ccc(F)nc2)nc1Cl` (stereo not shown) [Example 238] are 173 to 175 °C, 7.5 µg/mL (≈ 14.4 µM), 5.6 µg/mL (≈ 10.7 µM) and 2.42.
`COc1cc(OCc2ccc(C(F)(F)F)nc2)ccc1-c1[nH]c(C2CC(F)(F)C2)nc1Cl` [Example 181] registered a melting point of 199 to 201 °C. For the same molecule, the solubility at 24 h in data set [1] (setting [3]) is 93.4 µg/mL (≈ 197 µM). In data set [1] (setting [4]), the solubility at 24 h was < 0.3 µg/mL. Besides, the fold induction at 10 µM in data set [2] is 4.53.
The matching figures for `COc1cc(-c2[nH]c(C3CCCC3)nc2Cl)ccc1OCc1ccc(C(F)(F)F)cn1` [Example 194]: 182 to 184 °C (dec.), > 90 µg/mL, 0.5 µg/mL (≈ 1.11 µM) and 3.92.
In the same order, the values of `COc1cc(OCc2cccc(C#N)n2)ccc1-c1c[nH]c(C2CCCCC2)n1` [Example 55] are 182 to 187 °C, > 78 µg/mL, 2.3 µg/mL (≈ 5.92 µM) and 4.24.
In the same order, the values of `COc1cc(OCc2cnccn2)ccc1-c1nc(-c2ccc(Cl)nc2)[nH]c1Cl` [Example 230] are 172 to 174 °C, 7.2 µg/mL (≈ 16.8 µM), < 0.3 µg/mL and 1.58.
For the molecule `COc1cc(OCc2ncc(Cl)cc2F)ccc1-c1cnc(-c2ccc(F)nc2)[nH]1` [Example 141], the melting point is 174 to 176 °C. In addition, in data set [1] (setting [3]), the solubility at 24 h is 10.1 µg/mL (≈ 23.6 µM). The solubility at 24 h in data set [1] (setting [4]) was < 0.3 µg/mL. Also, the fold induction at 10 µM in data set [2] is 2.33.
Take `COc1cc(OCc2ncc(C(F)(F)F)cc2F)ccc1-c1[nH]c(-c2ccc(F)nc2)nc1Br` [Example 255]: the melting point lay in the range of 156 to 158 °C. For the same molecule, in data set [1] (setting [3]), the solubility at 24 h was 17.5 µg/mL (≈ 32.3 µM). Also, in data set [1] (setting [4]), the solubility at 24 h is < 0.4 µg/mL. Also, the fold induction at 10 µM in data set [2] is 3.14.
The matching figures for `COc1cc(OCc2cnc(C)cn2)ccc1-c1c[nH]c(-c2ccc(Cl)nc2)n1` [Example 22]: 199 to 201 °C, 7.5 µg/mL (≈ 18.4 µM), 1.6 µg/mL (≈ 3.92 µM) and 2.22.
`COc1cc(-c2[nH]c(-c3ccc(F)nc3)nc2Cl)ccc1OC(C)c1ncc(C(F)(F)F)cc1F` (stereo not shown) [Example 396] returned a melting point of 113 to 118 °C. In data set [1] (setting [3]), the solubility at 24 h was 28 µg/mL (≈ 54.8 µM). Besides, the solubility at 24 h in data set [1] (setting [4]) is < 0.4 µg/mL. For the same molecule, the fold induction at 10 µM in data set [2] was 2.93.
As for `CCc1cc(OCc2ncc(C(F)(F)F)cc2F)ccc1-c1cnc(-c2ccc(F)nc2)[nH]1` [Example 363], the melting point was 115 to 117 °C. Moreover, the solubility at 24 h in data set [1] (setting [3]) is 104 µg/mL (≈ 225 µM). Moreover, the solubility at 24 h in data set [1] (setting [4]) came out at 6.9 µg/mL (≈ 15 µM). Moreover, the fold induction at 10 µM in data set [2] came out at 2.78.
`COc1cc(-c2[nH]c(CCC(F)(F)F)nc2Cl)ccc1OCc1ncc(C(F)(F)F)cc1F` [Example 395] showed a melting point of 116 to 119 °C. For the same molecule, the solubility at 24 h in data set [1] (setting [3]) was 3.8 µg/mL (≈ 7.63 µM). In addition, the solubility at 24 h in data set [1] (setting [4]) is < 0.4 µg/mL. In data set [2], the fold induction at 10 µM was 2.61.
The molecule `COc1cc(OCc2ccc(C(F)(F)F)cn2)ccc1-c1nc(-c2ccc(Cl)nc2)[nH]c1Br` [Example 225] had a melting point of 186 to 188 °C. Further, in data set [1] (setting [3]), the solubility at 24 h was 5.5 µg/mL (≈ 10.2 µM). In addition, in data set [1] (setting [4]), the solubility at 24 h amounted to 0.9 µg/mL (≈ 1.67 µM). Further, the fold induction at 10 µM in data set [2] is 2.8.
The matching figures for `COc1cc(OCc2ccc(C(F)(F)F)nc2)c(C)cc1-c1[nH]c(-c2ccc(F)nc2)nc1Cl` [Example 202]: 213 to 215 °C (dec.), 8.8 µg/mL (≈ 17.9 µM), < 1.8 µg/mL and 3.15.
The molecule `COc1cc(OCc2ncc(C(F)(F)F)cc2F)ccc1-c1[nH]c(C2CC2)nc1Cl` [Example 377] returned a melting point of 151 to 154 °C. Further, the solubility at 24 h in data set [1] (setting [3]) is 84.6 µg/mL (≈ 191 µM). In addition, the solubility at 24 h in data set [1] (setting [4]) was found to be 0.7 µg/mL (≈ 1.58 µM). Besides, the fold induction at 10 µM in data set [2] is 1.88.
The matching figures for `COCn1cc(-c2ccc(OCc3ccc(C(F)(F)F)cn3)cc2OC)nc1-c1ccc(Cl)nc1` [Example 167]: 138 to 140 °C, 100 µg/mL (≈ 199 µM), 0.4 µg/mL (≈ 0.792 µM) and 2.23.
Regarding `COc1cc(OCc2ccc(C(F)(F)F)cn2)ccc1-c1nc(C2CCC(F)(F)CC2)n(CC2CC2)c1Cl` [Example 292], the melting point fell in the range of 144 to 146 °C. The solubility at 24 h in data set [1] (setting [3]) is > 111 µg/mL. The solubility at 24 h in data set [1] (setting [4]) was < 9.9 µg/mL. In data set [2], the fold induction at 10 µM came to 2.81.
In turn, `COc1cc(OCc2ncc(C(F)(F)F)cc2F)ccc1-c1[nH]c(C2CCC(F)(F)CC2)nc1Br` [Example 337] had a melting point of 190 to 191 °C. Also, the solubility at 24 h in data set [1] (setting [3]) is 110 µg/mL (≈ 195 µM). The solubility at 24 h in data set [1] (setting [4]) was determined as 0.5 µg/mL (≈ 0.886 µM). Further, in data set [2], the fold induction at 10 µM was found to be 3.07.
In the same order, the values of `Oc1cc(OCc2ncc(C(F)(F)F)cc2F)ccc1-c1[nH]c(-c2ccc(F)nc2)nc1Br` [Example 408] are 202 to 204 °C, 1.9 µg/mL (≈ 3.6 µM), < 0.4 µg/mL and 1.24.
Molecule `COc1cc(OCc2ccc(C(F)(F)F)cn2)ccc1-c1c[nH]c(-c2ccc(S(C)(=O)=O)nc2)n1` [Example 38] gave a melting point of 213 to 214 °C. In data set [1] (setting [3]), the solubility at 24 h was 60.5 µg/mL (≈ 120 µM). Besides, the solubility at 24 h in data set [1] (setting [4]) stood at 0.9 µg/mL (≈ 1.78 µM). Moreover, the fold induction at 10 µM in data set [2] is 2.25.
As for `COc1cc(OCc2ccc(C(F)(F)F)nc2)ccc1-c1cnc(-c2ccc(Br)nc2)[nH]1` [Example 388], the melting point lay in the range of 222 to 224 °C. Moreover, the solubility at 24 h in data set [1] (setting [3]) is 0.8 µg/mL (≈ 1.58 µM). Moreover, in data set [1] (setting [4]), the solubility at 24 h is < 0.4 µg/mL. Moreover, in data set [2], the fold induction at 10 µM is 2.13.
On to `COc1cc(-c2[nH]c(-c3ccc(F)nc3)nc2Cl)ccc1OCc1ncc(C(F)(F)F)cc1F` [Example 325], for which the melting point was 165 to 170 °C. Besides, the solubility at 24 h in data set [1] (setting [3]) is 4.7 µg/mL (≈ 9.46 µM). Also, the solubility at 24 h in data set [1] (setting [4]) was found to be 1.3 µg/mL (≈ 2.62 µM). In data set [2], the fold induction at 10 µM stood at 2.44.
`COc1cc(OCc2ccc(S(=O)(=O)OC)cn2)ccc1-c1c[nH]c(-c2ccc(Cl)nc2)n1` [Example 44]: the melting point is 232 to 235 °C (dec.). The solubility at 24 h in data set [1] (setting [3]) is 11.9 µg/mL (≈ 24.4 µM). In addition, in data set [1] (setting [4]), the solubility at 24 h worked out at 0.7 µg/mL (≈ 1.44 µM). In data set [2], the fold induction at 10 µM is 1.14.
In the same order, the values of `COc1cc(OCc2ccc(C(F)(F)F)nc2)ccc1-c1nc(-c2ccc(Cl)nc2)n(C)c1C` [Example 152, 2-chloro-5-[4-[2-methoxy-4-((6-(trifluoromethyl)pyridin-3-yl)methoxy)phenyl]-1,5-dimethyl-1H-imidazol-2-yl]pyridine] are 185 to 188 °C, > 98 µg/mL, < 0.3 µg/mL and 3.3.
In the same order, the values of `COc1cc(OCc2ccc(C(F)(F)F)nc2)ccc1-c1nc(-c2ccc(F)nc2)n(C)c1C#N` [Example 410] are 165 to 167 °C, 1.1 µg/mL (≈ 2.28 µM), < 0.3 µg/mL and 0.42.
In the same order, the values of `COc1cc(OCc2ccncc2C(F)(F)F)ccc1-c1cnc(-c2ccc(Cl)nc2)[nH]1` [Example 100] are 220 to 228 °C, 15 µg/mL (≈ 32.5 µM), < 0.3 µg/mL and 3.05.
Consider `COc1cc(OCc2coc(C)n2)ccc1-c1nc(-c2ccc(Cl)nc2)[nH]c1Cl` [Example 211], for which the melting point lay in the range of 136 to 155 °C. Also, the solubility at 24 h in data set [1] (setting [3]) was 84.7 µg/mL (≈ 196 µM). In addition, in data set [1] (setting [4]), the solubility at 24 h is 2.2 µg/mL (≈ 5.1 µM). Besides, in data set [2], the fold induction at 10 µM is 2.55.
In the case of `COc1cc(OCc2ccc(C(F)(F)F)cn2)ccc1-c1[nH]c(-c2ccc(Cl)nc2)nc1I` [Example 208], the melting point was 204 to 208 °C (dec.). Moreover, the solubility at 24 h in data set [1] (setting [3]) was 24.9 µg/mL (≈ 42.4 µM). Besides, the solubility at 24 h in data set [1] (setting [4]) is < 0.4 µg/mL. Further, the fold induction at 10 µM in data set [2] is 4.72.
In the same order, the values of `COc1cc(OCc2ccc(C(F)(F)F)nc2)ccc1-c1[nH]c(-c2ccc(F)nc2)nc1C#N` [Example 409] are 212 to 219 °C, 1.3 µg/mL (≈ 2.77 µM), 1.9 µg/mL (≈ 4.05 µM) and 1.34.
